# Results: a melting point compilation (Tetko et al.; mined from patent text by program, amines drawn as free bases though some values may be those of a salt)
row,Compound,melting point
1,N#Cc1ccc2c(c1)C(=O)C1(CC1)O2,148 to 149 °C
2,Cc1nc(COc2ccc(C[C@@H](C)[C@@H](C)Cc3ccc(OCc4csc(C)n4)c(OCc4csc(C)n4)c3)cc2OCc2csc(C)n2)cs1,85 to 87 °C
3,COC(=O)CCc1cc2nc(Cl)ccc2n1S(=O)(=O)c1ccc2ncsc2c1,146 °C
4,Cc1cccc(C)c1OC(=O)[C@H](C)[C@@H](O)C(C)C,58.5 to 59.5 °C
5,O=c1[nH]ccc2nc(C(F)(F)F)nn12,203 to 205 °C
6,CN(C)C(=O)N1CCC(Oc2ccc(C(F)(F)F)cc2)(c2ccccc2)CC1,158 to 160 °C
7,Cc1cc(-c2ccc(Cl)cc2)nc(-n2cnc(-c3ccc(S(N)(=O)=O)cc3)c2)n1,312 °C
8,Cc1ccc([N+](=O)[O-])c(C)c1C(=O)O,109 to 112 °C
9,CCOc1nc(Br)cnc1N,84 °C
10,Cc1noc(NS(=O)(=O)c2ccccc2-c2ccc(-c3ncco3)cc2CN2CCN(C)C2=O)c1C,105 to 115 °C
11,C=CCOc1ccc2c(C)c(C#N)c(=O)oc2c1C,172 °C
12,CC(=O)N(C)c1ccc(OCc2nc3ccccc3s2)cc1,119 to 120 °C
13,Clc1cc(Oc2ccc3[nH]ccc3c2)ncn1,137 to 138 °C
14,CN1C(=O)CC[C@]2(C)c3ccc(-c4nc5ccccc5[nH]4)cc3CC[C@@H]12,183 to 186 °C
15,COc1cccc2c1C(=O)C(=O)N2,198 to 200 °C
16,COc1ccc(Cn2c(=O)ccc3cnc(N4CCC[C@H]4CO)nc32)cc1Cl,142 to 143 °C
17,O=S(=O)(c1ccc(N2CCNCC2)cc1)n1ccc2cc(F)ccc21,77 to 78 °C
18,O=c1[nH]nc(-c2ccc3ccccc3c2)o1,197 to 199 °C
19,CN(C)C(=O)c1ccc(NC=O)cc1S(N)(=O)=O,192 to 193 °C
20,O=c1c(CCC(O)c2ccncc2)cc2cccnc2n1-c1cccc([N+](=O)[O-])c1 (configuration not stated),235 to 236 °C
21,CN(Cc1ccccc1)CC1CN(c2c(F)cc3c(=O)c(C(=O)O)cn(C4CC4)c3c2F)CCO1 (configuration not stated),155 to 157 °C
22,O=C(Nc1ccc(C(=O)O)cc1)OCc1cn(-c2cc3cc(C(=O)O)c(=O)[nH]c3cc2C(F)(F)F)cn1,218 to 220 °C
23,CCC#CC(C)(C)NC(=O)C(CC)Oc1cncc(Br)c1 (configuration not stated),90 to 92 °C
24,C/C(=C\c1ccc(OCCN2CCOCC2)cc1)c1ccc2c(c1)C(C)(C)CCC2(C)C,107 to 109 °C
25,COc1ccc(-c2nn(Cc3ccccc3)c(=O)c3ccccc23)c(OC)c1OC,144 to 145 °C
26,Cc1c(C)c2c(c(C)c1N)CC(C)(CN1CCN(C)CC1)O2 (configuration not stated),76 to 77 °C

row,Compound,melting point
1,CSc1ccc(-c2coc3ccc(-c4nnc(C)o4)cc23)cc1,173 to 174 °C
2,CC1=NSc2c(F)c(F)c(F)c(F)c2N1Cc1ccc(-c2ccccc2C(=O)OC(C)(C)C)cc1,177 to 179 °C
3,CCCCCc1ccc([C@H]2CC[C@H](c3ccc(C#N)cc3)CC2)cc1,80 °C
4,COC(=O)C(c1cccc(Br)c1)c1ncnc2cc(OC)c(OC)cc12 (configuration not stated),167 to 168 °C
5,CC(C)(C)c1cc(NS(=O)(=O)c2ccc(N3CCNC3=O)cc2)cc(C(C)(C)C)c1,276 to 278 °C
6,OCC1(Cc2ccccc2)CCC2(CC1)OCCO2,76 to 78 °C
7,CCOC(=O)C(NC(=O)CI)C(=O)OCC,95 to 97 °C
8,OC(CN1CCNC1=S)c1ccccn1 (configuration not stated),120 °C
9,CC(Oc1ccc(Oc2nc3ccc(Cl)cc3o2)cc1)C(=O)OC[Si](C)(C)C (configuration not stated),68 °C
10,O=C(Nc1ccc2nc(CN3CCCC3)ccc2c1)C1CCN(c2ccc(Cl)cc2)CC1,204 to 206 °C
11,CC=Cn1c(=S)sc2c(=N)n(NC(=O)c3ccco3)cnc21,218 °C
12,CCCc1c(OCCCOc2ccc(CC(=O)O)cc2Br)ccc(C(C)=O)c1O,111 to 112 °C
13,C(=Nc1ccccn1)N(c1ccccc1)c1ccccc1,92 to 94 °C
14,CN(C)C=CC(=O)c1ccc(F)cc1,83.5 to 84 °C
15,CC(C)c1cc(C(=O)Nc2cc(F)c(C(=O)O)c(F)c2)sc1C(C)C,218 to 219 °C
16,COc1cc(C2C(=O)N(C)Cc3c2ccc(OC)c3OC(C)C)cc(OC)c1OC (configuration not stated),128 to 129 °C
17,CCCC(=O)Nc1n[nH]c2cc(-c3ccc([N+](=O)[O-])cc3)ccc12,250 °C
18,CCCC(=O)c1cnc2c(OC)cccc2c1Nc1ccc(O)c(F)c1,266 to 268 °C
19,CC1CC2C3CCC4=CC(=O)C=CC4(C)C3=CCC2(C)C1C(=O)CN1CCN(c2cc(NC(C)(C)C)nc(NC(C)(C)C)n2)CC1 (configuration not stated),145 to 155 °C
20,O=c1cc(-c2ccncc2)nc2n1CCCN2,219 °C
21,O=C1c2ccccc2C(=O)N1CCCc1cccnc1,88 to 89 °C
22,CN(CCCO)c1ccnc(CSc2nc3ccccc3[nH]2)c1Cl,127 to 130 °C
23,C=Cc1cc(C)nc2c(OCc3ccccc3)cccc12,114 °C
24,CCCOCCOc1ccc(-c2ccc3c(c2)C=C(C(=O)O)CCN3Cc2ccccc2)cc1,139 to 142 °C
25,CC(=O)Oc1c(OC(C)=O)c([C@H]2CC[C@H](c3ccc(Cl)cc3)CC2)c(OC(C)=O)c2ccccc12,177 to 179 °C
26,CC(=O)N1CCC2(CC1)C(=O)NC(=O)N2c1ccc(C)cc1,295 to 297 °C

row,Compound,melting point
1,CCOC(=O)C(Cc1ccc(OC)cc1)(C(=O)OCC)c1cc2cc(Br)ccc2s1,58 to 60 °C
2,CC(C=CCC(C)(C)O)C1CCC2C3=CC=C4CC(O)CCC4(C)C3CCC21C (configuration not stated),198 to 200 °C
3,CN1Cc2c(-c3noc(CN4CCCC(C)(C)C4)n3)ncn2-c2ccccc2C1=O,167 to 168 °C
4,Cc1ccccc1C(c1c[nH]cn1)c1ccccc1C,228 to 231 °C
5,CCCN1C(=O)c2cccnc2NS1(=O)=O,208 to 210 °C
6,CC(C)n1c(CCC2C[C@@H](O)CC(=O)O2)c(-c2ccc(F)cc2)c(-c2ccccc2)c1C(=O)Nc1ccc(F)cc1 (some centres not stated),98 to 99 °C
7,COc1cc(F)c(C(=O)CCCCCBr)cc1OC,81 to 83 °C
8,O=C(Nc1cc(C2CC2)n[nH]1)c1ccc[nH]1,207 to 209 °C
9,COc1ccc(C2=Nc3ccc(N4CCCC4)cc3C(=O)C2)cc1,312 to 313 °C
10,COc1cc2c3c(c1)c(N)c(C(=O)N1CCc4ccccc41)c(=O)n3CCO2,130 to 140 °C
11,CC(=O)NNc1ccnc2c(NC(=O)c3c(Cl)cccc3Cl)cc(C)cc12,263 to 266 °C
12,CCOC(=O)c1cn(C2CC2)c2nc(N3C[C@@H](CN(CC)C(=O)C(F)(F)F)[C@@H](F)C3)c(F)cc2c1=O (relative stereo),150 to 153 °C
13,Cc1ccc(S(=O)(=O)NCCc2ccc(C(=O)CN3CCN(c4ccncc4)CC3)cc2)cc1,133 to 135 °C
14,C#CCN1CCC[C@H](NCc2ccccc2OC)[C@@H]1c1ccccc1 (relative stereo),147 to 149 °C
15,ON=C(Cl)c1ccccc1,50 to 51 °C
16,O=S1(=O)NCN(C2CC2)c2ccc(C(F)(F)F)cc21,155 to 157 °C
17,CCOC(=O)C1Cc2[nH]c3ccc(OC)cc3c2C1 (configuration not stated),82 to 83 °C
18,CCOC(=O)C(C#N)=Cc1ccc(NC(=O)CC[Si](C)(C)C)cc1,157 °C
19,CCc1c(C(=O)c2cc(C)cc(C)c2)n(C/C=C/CO)c(=O)[nH]c1=O,172 to 173 °C
20,COC(=O)c1cc(C)cc(C=O)c1,71 to 73 °C
21,CC(=O)c1ccc(OCCCCCCOc2ccccc2)o1,80 °C
22,C#CC1(O)CCN(C(C)=O)CC1,132 to 134 °C
23,Cc1nnc2n1-c1ccc(Br)cc1C(c1ccccc1F)=NC2NC(=O)OCc1ccccc1 (configuration not stated),160 to 170 °C
24,N#Cc1ccc(/C=C/C=C/C=O)c(F)c1,174 to 177 °C
25,O=C(Cc1cccs1)N1C(=O)OC[C@@H]1Cc1ccccc1,56 to 59 °C
26,N#Cc1ccccc1-c1cccc(-c2cnc3nc(C(F)(F)F)cnn23)c1F,167 to 168 °C

row,Compound,melting point
1,Cc1cc(Oc2c(Cl)cc(C(F)(F)F)cc2Cl)nn1C(=O)NCCN1CCOCC1,99 to 101 °C
2,O=C1OC(CCl)CN1c1ccc(Cl)cc1 (configuration not stated),119 to 120 °C
3,CC=CN1CC([N+](=O)[O-])=CN(C(C)c2ccc(Cl)nc2)C1(C)N (configuration not stated),148 to 150 °C
4,CC(C)c1nn(-c2ccc(C(F)(F)F)cn2)cc1CCCOc1c(F)cccc1CC(=O)O,140 to 141 °C
5,COc1cc(OC)c2c(=O)[nH]c(-c3cc(C)c(O)c(C)c3)nc2c1,291 to 293 °C
6,Cn1c(SCC(=O)C23CC4CC(CC(C4)C2)C3)nc2ccccc21,146 to 148 °C
7,O=C(O)Cc1cccc(C(=O)c2ccccc2)c1,101 to 103 °C
8,COC(=O)C(C)(C)OCc1cc2nc(Cl)ccc2n1S(=O)(=O)c1cccc2ccccc12,108 °C
9,CN(C)C=C(C#N)C#N,81 to 82 °C
10,COc1cc(C(=O)O)c(-c2c(C(=O)O)ccc3c2OCO3)cc1OC,207 to 210 °C
11,CC(O)(COc1ccc(C(=O)c2ccccc2)cc1)C(F)(F)F (configuration not stated),70 to 73 °C
12,O=C(Nc1nc(C(Cl)(Cl)Cl)ns1)c1ccccc1,190 °C
13,Cc1ccc(CCOc2ccc(N)cc2)nc1,74 to 75 °C
14,CCCCCCc1sc(C(=O)O)c2c1-c1c(cnn1C)CC2,242 to 243 °C
15,Cc1c(-c2ccc(OC3CCCC3)cc2)n(Cc2ccc(OCCO)cc2)c2ccc(OCc3ccccc3)cc12,129 to 131 °C
16,CCCC1=C(C#N)S(=O)(=O)c2ccc(C(F)(F)F)cc2N1,200 °C
17,CC(O)c1cc(Br)ccc1OCc1ccccc1 (configuration not stated),76.7 °C
18,O=S1(=O)NC(C2CCCCC2)Nc2ccc(-c3cccc(O)c3)cc21 (configuration not stated),238 to 246 °C
19,O=C(O)CCc1cccc(OCc2cn(-c3ccc(C(F)(F)F)cn3)nc2C2CCCCC2)c1,94 to 95 °C
20,COc1cc(Nc2nccc(-c3nc4ccccc4s3)n2)cc(OC)c1OC,182 to 183 °C
21,COc1ccc(Oc2c(Br)cc(C=O)cc2Br)cc1Cc1ccc(=O)[nH]n1,183 to 184 °C
22,COc1cc(CC(=O)O)n(C)c1C(=O)c1ccc(Cl)cc1,142 °C
23,COc1ccc(C=NO)c(Cl)c1O,174 to 176 °C
24,COc1cc2ncnc(N3CCNCC3)c2cc1OC,178 to 179 °C
